Values quoted from earlier work, collected in patent US20090325155A1, “Aureobasin a synthetase” (priority 2005, published 2009).
Starred links: 1 amine or outer side, 2 acyl side, 3 side chain; linkers in the order of their positions; H or OH if unused. Non-standard residues stand in square brackets, D forms with d. Residues, ends and D or L forms follow the SMILES beside them. ξ: configuration not given here. NMeVal(β-OH) = CN[C@H](C(=O)O)C(C)(C)O; X1 = CCC(C)[C@@H](O[*:1])C(=O)[*:2]; NMeF = CN[C@@H](Cc1ccccc1)C(=O)O; Ile(3ξ) = CCC(C)[C@H](N)C(=O)O; NMeV = CN[C@H](C(=O)O)C(C)C

How the values were obtained:
Aspergillus spp. = details: third major human pathogen
[1] = test system: a number of fungi, including yeasts, such as Saccharomyces cerevisiae and Schizosaccharomyces pombe; details: low concentration toxic against a number of fungi

CCC(C)[C@@H]1NC(=O)[C@@H]2CCCN2C(=O)[C@H](Cc2ccccc2)N(C)C(=O)[C@H](Cc2ccccc2)NC(=O)[C@H](C(C)C)N(C)C(=O)[C@@H](C(C)CC)OC(=O)[C@H](C(C)(C)O)N(C)C(=O)[C@H](CC(C)C)NC(=O)[C@H](C(C)C)N(C)C1=O (stereo partly drawn) [AbA, Aureobasidin A] (cyclo(F[NMeF]P[Ile(3ξ)][NMeV]L[NMeVal(β-OH)][X1][NMeV]))
cidal to fungal pathogen (Cryptococcus neoformans): cidal
toxicity to fungal pathogen (Aspergillus spp.): not toxic
cidal to fungal pathogen (Candida spp): cidal
concentration at which toxic [1]: 0.1 to 0.5 µg/mL
